Measurements as given in patent US20230183239A1, “ECTONUCLEOTIDE PYROPHOSPHATASE-PHOSPHODIESTERASE 1 (ENPP-1) INHIBITORS AND USES THEREOF” (AbbVie Inc., priority 2017, published 2023).

Key:
Type in all cases: biochemical
[1] = biological target: T1, ENPP1 (Homo sapiens, UniProt P22413); experiment: ENPP1 enzyme assay with AMP-pNP substrate (hydrolysis of ATP analog); conditions: AMP-pNP substrate (ATP analog); Ki from IC50 by Cheng-Prusoff; read-out: ENPP1 Inhibition _AMP-pNP: Ki
T1 sequence (P22413 1-925): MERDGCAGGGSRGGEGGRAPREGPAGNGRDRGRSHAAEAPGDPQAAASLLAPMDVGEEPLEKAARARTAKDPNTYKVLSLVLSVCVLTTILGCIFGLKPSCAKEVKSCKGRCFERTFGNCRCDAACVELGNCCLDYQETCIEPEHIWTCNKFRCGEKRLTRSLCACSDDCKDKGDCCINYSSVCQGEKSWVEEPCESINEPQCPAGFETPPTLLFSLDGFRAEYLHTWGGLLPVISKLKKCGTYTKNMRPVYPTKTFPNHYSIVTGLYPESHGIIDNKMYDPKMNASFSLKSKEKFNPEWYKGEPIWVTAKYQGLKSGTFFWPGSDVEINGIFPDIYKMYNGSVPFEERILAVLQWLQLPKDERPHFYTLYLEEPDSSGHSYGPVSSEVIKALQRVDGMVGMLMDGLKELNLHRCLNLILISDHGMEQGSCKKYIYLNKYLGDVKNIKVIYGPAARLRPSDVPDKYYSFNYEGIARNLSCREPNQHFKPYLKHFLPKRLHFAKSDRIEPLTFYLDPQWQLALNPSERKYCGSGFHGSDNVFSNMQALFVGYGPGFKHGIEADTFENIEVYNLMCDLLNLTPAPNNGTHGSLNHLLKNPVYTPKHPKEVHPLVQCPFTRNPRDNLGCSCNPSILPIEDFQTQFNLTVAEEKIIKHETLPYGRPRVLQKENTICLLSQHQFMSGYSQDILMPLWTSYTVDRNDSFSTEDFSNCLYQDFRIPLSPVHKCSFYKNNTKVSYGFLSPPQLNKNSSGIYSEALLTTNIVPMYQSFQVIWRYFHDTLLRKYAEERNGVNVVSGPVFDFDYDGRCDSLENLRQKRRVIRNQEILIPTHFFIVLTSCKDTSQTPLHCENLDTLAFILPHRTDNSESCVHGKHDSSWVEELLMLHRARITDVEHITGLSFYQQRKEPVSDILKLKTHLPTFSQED
Summary of the method: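 Human recombinant ENPP1 (60 ng/well) with 300 µM AMP-pNP in 50 mM Tris-HCl pH 8.5, 250 mM NaCl, 0.5 mM CaCl2, 1 µM ZnCl2, 0.1% DMSO, 20 min at 37 °C.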

[2] = biological target: T1, ENPP1; experiment: Indirect quantitation of 2',3'-cGAMP hydrolysis (AMP-Glo Assay kit); conditions: cGAMP substrate; Ki from IC50 by Cheng-Prusoff; read-out: ENPP1 Inhibition -cGAMP: Ki
[3] = biological target: T1, ENPP1; experiment: Substrate selectivity ratio, inhibition of cGAMP hydrolysis versus ATP hydrolysis; conditions: ratio Ki AMP-pNP / Ki cGAMP
Procedure: The selectivity ratios for inhibition of cGAMP hydrolysis versus ATP hydrolysis were then calculated as follows: […]

Compound | Ki [1] | Ki [2] | Substrate Selectivity: Ki_AMP-pNP/Ki_cGAMP [3]
COc1cc2ncc(F)c(-c3ccc(CNS(N)(=O)=O)cc3)c2cc1OC [Example 67, N-(4-(3-fluoro-6,7-dimethoxyquinolin-4-yl)benzyl)sulfamide] | < 100 nM | < 100 nM | 67.2
COc1ccc2c(Oc3ccc(N)cc3)ccnc2c1 [Example 342, 4-((7-methoxyquinolin-4-yl)oxy)aniline] | > 1000 nM | 100 to 1000 nM | >64.9
COc1cc2nccc(NCc3ccc(NS(N)(=O)=O)cc3)c2cc1OC [Example 180, N-(4-(((6,7-dimethoxyquinolin-4-yl)amino)methyl)phenyl)sulfamide] | > 1000 nM | 100 to 1000 nM | > 11.9
NS(=O)(=O)c1ccc(CNc2ncnc3cc(F)ccc23)cc1 [Example 304, 4-(((7-fluoroquinazolin-4-yl)amino)methyl)benzenesulfonamide] | > 1000 nM | < 100 nM | >34.0
COc1cc2ncc(C#N)c(-c3ccc(CNS(N)(=O)=O)cc3)c2cc1OC [Example 241, N-(4-(3-cyano-6,7-dimethoxyquinolin-4-yl)benzyl)sulfamide] | 100 to 1000 nM | < 100 nM | 49.0
COc1ccc2c(NC(C)c3ccc(NS(N)(=O)=O)cc3)ncnc2c1 (stereo not drawn) [Example 279, N-(4-(1-((7-methoxyquinazolin-4-yl)amino)ethyl)phenyl)sulfamide] | 100 to 1000 nM | < 100 nM | 24.2
COc1cc2nccc(-c3ccc(CNS(N)(=O)=O)nc3)c2cc1OC [Example 314, N-((5-(6,7-dimethoxyquinolin-4-yl)pyridin-2-yl)methyl)sulfamide] | > 1000 nM | < 100 nM | 35.7
COc1ccc2c(-c3ccc4c(c3)CN(S(N)(=O)=O)CC4)ccnc2n1 [Example 365, 7-(7-methoxy-1,8-naphthyridin-4-yl)-3,4-dihydroisoquinoline-2(1H)-sulfonamide] | 100 to 1000 nM | < 100 nM | 18
COc1cc2nccc(NC3CCC(NS(N)(=O)=O)CC3)c2cc1OC (stereo not drawn) [Example 307, N-(4-((6,7-dimethoxyquinolin-4-yl)amino)cyclohexyl)sulfamide] | > 1000 nM | 100 to 1000 nM | >15.5

Other lines, results leading:

Ki [1] | Ki [2] | Substrate Selectivity: Ki_AMP-pNP/Ki_cGAMP [3] | Compound
100 to 1000 nM | < 100 nM | 54 | COc1ccc2c(-c3ccc(CNS(N)(=O)=O)nc3)ccnc2c1 [Example 354, N-((5-(7-methoxyquinolin-4-yl)pyridin-2-yl)methyl)sulfamide]
100 to 1000 nM | < 100 nM | 46 | COc1ccc2c(-c3ccc4c(c3)CN(S(N)(=O)=O)C4)ccnc2c1 [Example 402, 5-(7-methoxyquinolin-4-yl)isoindoline-2-sulfonamide]
> 1000 nM | 100 to 1000 nM | >61.9 | COc1cc2nccc(Oc3ccc4c(c3)CNS(=O)(=O)N4)c2cc1OC [Example 263, 6-((6,7-dimethoxyquinolin-4-yl)oxy)-3,4-dihydro-1H-benzo[c][1,2,6]thiadiazine 2,2-dioxide]
< 100 nM | < 100 nM | 13.3 | COc1ccc2c(Oc3ccc(NS(N)(=O)=O)cc3F)ccnc2c1 [Example 71, N-(3-fluoro-4-((7-methoxyquinolin-4-yl)oxy)phenyl)sulfamide]
< 100 nM | < 100 nM | 71.2 | COc1ccc2c(NCc3ccc(S(N)(=O)=O)cc3)ncnc2c1 [Example 230, 4-(((7-methoxyquinazolin-4-yl)amino)methyl)benzene sulfonamide]
> 1000 nM | < 100 nM | > 16.4 | COc1cc2ncnc(N3CCC(CCNS(=O)(=O)C(F)F)CC3)c2cc1OC [Example 208, N-(2-(1-(6,7-dimethoxyquinazolin-4-yl)piperidin-4-yl)ethyl)-1,1-difluoromethanesulfonamide]
